Laboratory results taken from the NIST ThermoML archive (doi:10.1021/je500380x).
± gives the expanded uncertainty stated by the source.

Experiment: mn = molality of the nth substance listed, in mol/kg
Conditions: 100 kPa, Liquid; for electrical conductivity: Alternating current cell with electrodes; for viscosity: Falling or rolling sphere viscometry; for mass density: Vibrating tube method

CCC(=O)OCCN1CCNCC1 [2-(piperazin-1-yl)ethyl propionate] + CCO
Conditions	electrical conductivity, 318.15 K [S/m]	electrical conductivity, 323.15 K [S/m]	mass density, 318.15 K [kg/m3]	mass density, 323.15 K [kg/m3]	viscosity, 318.15 K [mPa·s]	viscosity, 323.15 K [mPa·s]
m1 = 0.05	–	0.0198 ± 0.00021	770.48 ± 0.16	765.98 ± 0.16	0.787 ± 0.01	0.725 ± 0.009
m1 = 0.1	–	0.0331 ± 0.0003	773.2 ± 0.16	768.7 ± 0.16	0.82 ± 0.01	0.755 ± 0.009
m1 = 0.1985	–	0.0536 ± 0.0005	778.55 ± 0.16	774.05 ± 0.16	0.86 ± 0.011	0.79 ± 0.01
m1 = 0.3005	–	0.0711 ± 0.0007	784.23 ± 0.15	779.73 ± 0.16	0.916 ± 0.011	0.84 ± 0.01
m1 = 0.4001	–	0.0856 ± 0.0009	789.7 ± 0.15	785.21 ± 0.15	0.972 ± 0.012	0.889 ± 0.011
m1 = 0.5007	–	0.1004 ± 0.001	795.39 ± 0.15	790.92 ± 0.15	1.043 ± 0.013	0.951 ± 0.012
m1 = 0.5998	–	0.1131 ± 0.0011	800.91 ± 0.15	796.46 ± 0.15	1.113 ± 0.014	1.014 ± 0.013
m1 = 0.7002	–	0.1239 ± 0.0012	806.67 ± 0.15	802.23 ± 0.15	1.194 ± 0.015	1.086 ± 0.013
m1 = 0.8	–	0.137 ± 0.0014	812.45 ± 0.15	808.02 ± 0.15	1.299 ± 0.016	1.178 ± 0.015
m1 = 0.8957	–	0.146 ± 0.0015	818.24 ± 0.15	813.82 ± 0.15	1.381 ± 0.017	1.251 ± 0.015
m1 = 1	–	0.159 ± 0.0016	824.21 ± 0.14	819.82 ± 0.15	1.492 ± 0.018	1.348 ± 0.017
m1 = 1.198	–	0.178 ± 0.0018	835.97 ± 0.14	831.61 ± 0.14	1.741 ± 0.022	1.567 ± 0.019
m1 = 1.401	–	0.196 ± 0.002	848.63 ± 0.14	844.32 ± 0.14	2.071 ± 0.026	1.855 ± 0.023
m1 = 1.602	–	0.209 ± 0.002	860.7 ± 0.14	856.43 ± 0.14	2.503 ± 0.031	2.446 ± 0.03
m1 = 1.8	–	0.222 ± 0.002	873.18 ± 0.13	868.95 ± 0.13	3.057 ± 0.038	2.713 ± 0.034
m1 = 2.001	0.211 ± 0.002	0.231 ± 0.002	886.65 ± 0.13	882.65 ± 0.13	3.912 ± 0.048	3.443 ± 0.043
m1 = 2.198	0.214 ± 0.002	0.237 ± 0.002	898.68 ± 0.13	894.55 ± 0.13	4.647 ± 0.057	4.068 ± 0.05
m1 = 2.397	0.212 ± 0.002	0.236 ± 0.002	912.04 ± 0.13	907.95 ± 0.13	5.859 ± 0.072	5.091 ± 0.063
m1 = 2.597	0.207 ± 0.002	0.232 ± 0.002	925.4 ± 0.12	921.36 ± 0.12	8.129 ± 0.1	6.903 ± 0.085
m1 = 2.796	0.199 ± 0.002	0.224 ± 0.002	938.75 ± 0.12	934.75 ± 0.12	10.27 ± 0.13	8.728 ± 0.11
m1 = 3.006	0.188 ± 0.0019	0.213 ± 0.002	953.35 ± 0.12	949.41 ± 0.12	14.2 ± 0.18	12.02 ± 0.15
